The values that follow come from EP0314038A1, “Pyrrolidines” (Byk Gulden Lomberg Chemische Fabrik GmbH, priority 1987, dated 1989).

SMILES strings stand for the structures. Counter-ions that a name gives are not always drawn.

The experiment relates to spontan hypertonen Ratte. Kind of experiment: antihypertensive effect (systolic blood pressure, tail cuff) in spontaneously hypertensive rats after oral administration. Type of experiment: in vivo. The following applies: genetically hypertensive rats (SHR/N/Ibm/Bm), N=6; for BP (% Änderung vs. Kontrolle), Mittelwert für Meßzeitpunkte: Stunden nach Gabe (Tage) 2h (1.+4.Tag): 2h after dosing, mean of days 1+4; for BP (% Änderung vs. Kontrolle), Mittelwert für Meßzeitpunkte: Stunden nach Gabe (Tage) 6h (1.-4.Tag): 6h after dosing, mean of days 1-4. The text has this: Die antihypertensive Wirksamkeit der erfindungsgemäßen Verbindungen kann am Modell der spontan hypertonen Ratte nachgewiesen werden.
Zur Bestimmung der antihypertensiven Wirkung werden die unten aufgeführten Verbindungen in den angegebenen Dosen an vier aufeinander folgenden Tagen an je 6 männlichen Ratten (Stamm SHR/N/Ibm/Bm, 250-350 g) mit genetisch bedingtem Hochdruck (systolischer Blutdruck > 180 mmHg) täglich einmal mittels Schlundsonde verabfolgt. Die Messung des Blutdrucks erfolgt jeweils 6 und gegebenenfalls 2 oder 24 Stunden nach Substanzgabe.
Die Blutdruckmessung wird in einer Wärmekammer bei 36°C vorgenommen, um eine bessere Durchblutung der Schwanzarterie zu erreichen. Hierzu werden die Tiere in perforierte Lochblechkäfige verbracht und 20 - 40 Min. nach Beginn der Aufwärmung gemessen. Zur Messung des systolischen arteriellen Drucks wird eine ringförmige Manschette mit aufblasbarer Gummimembran zur Unterbindung der Durchblutung und ein ringförmiger Piezokristallaufnehmer zur Erfassung der Pulswellen auf den Schwanz aufgeschoben. Nach erfolgter Unterbindung des Blutstroms in der Schwanzarterie wird der Manschettendruck kontinuierlich reduziert. Die Wiederkehr der Pulswellen bei Druckablassen wird automatisch als systolischer Blutdruck erkannt und ausgedruckt (Bühler, R. et al.,: Microprocessor-based automation of blood pressure measurement in the conscious rat. Proceedings of the 4th international symposium on rats with spontaneous hypertension and related studies, Rascher, R. et al. (Eds.), Schattauer Verlag, Stuttgart, New York, 1982, S. 410-413). Pulssignale und Druckverlauf werden zur Auswertung graphisch aufgezeichnet.
Zur Gewöhnung an den Meßvorgang werden die Tiere vor Substanzprüfung 14 Tage trainiert. In der zweiten Trainingswoche werden Blutdruck-Vorwerte erhoben. Tiergruppen, die Substanz erhalten, werden gegen eine Kontrollgruppe geprüft.
In der anscließenden Tabelle werden die untersuchten Verbindungen durch laufende Nummern gekennzeichnet, die mit den jeweiligen Beispielnummern übereinstimmen.
Tabelle I gibt für die Vertreter der erfindungsgemäßen Verbindungen die prozentuale Senkung des Blutdrucks (BP) nach oraler Verabreichung bei der Ratte wieder. Tabelle I

[1] abbreviates: 25 µmol/kg p.o. once daily on four consecutive days.
Setting [2] is: 10 µmol/kg p.o. once daily on four consecutive days.

As for `CCOC(=O)C1=C(C)NC(C)=C(C(=O)OCCCN2CCCC2Cc2ccc(Cl)cc2)C1c1cccc([N+](=O)[O-])c1` (racemic) [Beispiel 1, 1,4-Dihydro-2,6-dimethyl-4-(±)-(3-nitrophenyl)-pyridin-3,5-dicarbonsäure-3-ethyl-5-{3-[2-(±)-(4-chlorbenzyl)-pyrrolidinyl-1]-propyl}-ester-hydrochlorid], under setting [1], the “BP (% Änderung vs. Kontrolle), Mittelwert für Meßzeitpunkte: Stunden nach Gabe (Tage) 2h (1.+4.Tag)” value (“BP (% Änderung vs. Kontrolle) … (1.+4.Tag)” below) is on record as -55,5% and the “BP (% Änderung vs. Kontrolle), Mittelwert für Meßzeitpunkte: Stunden nach Gabe (Tage) 6h (1.-4.Tag)” value (“BP (% Änderung vs. Kontrolle) … (1.-4.Tag)” below) is -43,5%.
For the molecule `COC(=O)C1=C(C)NC(C)=C(C(=O)OCCCN2CCCC2Cc2ccc(Cl)cc2)C1c1cccc(Cl)c1Cl` (racemic) [Beispiel 8, 1,4-Dihydro-2,6-dimethyl-4-(±)-(2,3-dichlorphenyl)-pyridin-3,5-dicarbonsäure-3-methyl-5-{3-[2-(-)-(4-chlorbenzyl)-pyrrolidinyl-1]-propyl}-ester-hydrochlorid], under setting [2], the “BP (% Änderung vs. Kontrolle) … (1.+4.Tag)” value is on record as -39% and the “BP (% Änderung vs. Kontrolle) … (1.-4.Tag)” value is recorded as -25,5%.
Take `COC(=O)C1=C(C)NC(C)=C(C(=O)OCCCN2CCCC2Cc2ccc(Cl)cc2)C1c1cccc([N+](=O)[O-])c1` (single isomer, unassigned) [Beispiel 4, 1,4-Dihydro-2,6-dimethyl-4-(+)-(3-nitrophenyl)-pyridin-3,5-dicarbonsäure-3-methyl-5-{3-[2-(-)-(4-chlorbenzyl)-pyrrolidinyl-1]-propyl}-ester-hydrochlorid]: under setting [2], the “BP (% Änderung vs. Kontrolle) … (1.+4.Tag)” value is -48% and the “BP (% Änderung vs. Kontrolle) … (1.-4.Tag)” value is -33%.
In the case of `COC(=O)C1=C(C)NC(C)=C(C(=O)OCCCN2CCCC2Cc2ccc(Cl)cc2)C1c1cccc([N+](=O)[O-])c1` (racemic) [Beispiel 2, 1,4-Dihydro-2,6-dimethyl-4-(±)-(3-nitrophenyl)-pyridin-3,5-dicarbonsäure-3-methyl-5-{3-[2-(-)-(4-chlorbenzyl)-pyrrolidinyl-1]-propyl}-ester-hydrochlorid], under setting [1], the “BP (% Änderung vs. Kontrolle) … (1.+4.Tag)” value was -47% and the “BP (% Änderung vs. Kontrolle) … (1.-4.Tag)” value was -34%. In addition, under “25 µmol/kg p.o. once daily on four consecutive days, 24h after dosing, mean of days 1+3”, the “BP (% Änderung vs. Kontrolle), Mittelwert für Meßzeitpunkte: Stunden nach Gabe (Tage) 24h (1.+3.Tag)” value is on record as -13,5%.
For the molecule `COC(=O)C1=C(C)NC(C)=C(C(=O)OCCCN2CCCC2Cc2ccc([N+](=O)[O-])cc2)C1c1cccc([N+](=O)[O-])c1` (racemic) [Beispiel 11, 1,4-Dihydro-2,6-dimethyl-4-(+)-(3-nitrophenyl)-pyridin-3,5-dicarbonsäure-3-methyl-5-{3-[2-(±)-(4-nitrobenzyl)-pyrrolidinyl-1]-propyl}-ester-hydrochlorid], under setting [1], the “BP (% Änderung vs. Kontrolle) … (1.+4.Tag)” value is recorded as -36,5% and the “BP (% Änderung vs. Kontrolle) … (1.-4.Tag)” value is -25,5%.
